Measured values taken from ChEMBL document CHEMBL1157117, “Synthesis of [11C]SSR149415 and preliminary imaging studies using positron emission tomography” (Bioorg Med Chem Lett, 2010).

Key:
[1] = Octanol/water partition coefficient, log D of the compound; type: physicochemical
[2] = Metabolic stability in baboon blood at 2.5+/-0.8 mCi, iv after 10 mins; type: ADME, organism-based; details: papio anubis, read-out: Stability
[3] = Fraction unbound in baboon plasma; type: ADME, cell-free; details: papio anubis
[4] = Biodistribution in baboon liver at 2.5+/-0.8 mCi, iv followed by second dose administered > 2 hrs after initial dose measured per cc after 90 mins; type: ADME, organism-based; details: papio anubis, in vivo, 1.5 h
[5] = Biodistribution in baboon spleen at 2.5+/-0.8 mCi, iv followed by second dose administered > 2 hrs after initial dose measured per cc after 90 mins; type: ADME, organism-based; details: papio anubis, in vivo, 1.5 h
[6] = Biodistribution in baboon lung at 2.5+/-0.8 mCi, iv followed by second dose administered > 2 hrs after initial dose measured per cc after 90 mins; type: ADME, organism-based; details: papio anubis, in vivo, 1.5 h
[7] = Selectivity ratio of vasopressin V1b receptor over vasopressin V1a receptor
[8] = Biodistribution in baboon heart at 2.5+/-0.8 mCi, iv followed by second dose administered > 2 hrs after initial dose measured per cc after 90 mins; type: ADME, organism-based; details: papio anubis, in vivo, 1.5 h
[9] = Selectivity ratio of vasopressin V1b receptor over vasopressin V2 receptor
[10] = Selectivity ratio of vasopressin V1b receptor over oxytocin receptor

Row | Compound | logD [1] | remaining at 10 min [2] | fraction unbound [3] | Drug uptake [4] | Drug uptake [5] | Drug uptake [6] | Ratio [7] | Drug uptake [8] | Ratio [9] | Ratio [10]
1 | COc1ccccc1[C@@]1(N2C[C@H](O)C[C@H]2C(=O)N(C)C)C(=O)N(S(=O)(=O)c2ccc(O[11CH3])cc2OC)c2ccc(Cl)cc21 | 3.22 | 50% | 0.0254 |  |  |  |  |  |  | 
2 | COc1ccc(S(=O)(=O)N2C(=O)[C@@](c3ccccc3OC)(N3C[C@H](O)C[C@H]3C(=O)N(C)C)c3cc(Cl)ccc32)c(OC)c1 [NELIVAPTAN] |  |  |  | 0.1 %ID | 0.01 %ID | 0.01 %ID | 100 | 0.01 %ID | 100 | 100
